Results: patent US12091399B2, “Phenyltetrazole derivatives as plasma kallikrein inhibitors” (Boehringer Ingelheim International GmbH, priority 2018, dated 2024)

Target: Human PKK (Homo sapiens (Human), UniProt P03952)
Test: Inhibition of PKK using an endpoint assay (human PKK)
Type: biochemical
Settings: 1 h at rt, 0.10 μM H-Pro-Phe-Arg-AMC
Procedure: The ability of compounds of formula (I) to inhibit plasma kallikrein (PKK), Factor XIIa (FXIIa), Factor XIa (FXIa), Factor Xa (FXa), Factor IIa (alpha-thrombin; FIIa), plasmin, trypsin, tissue kallikrein 1 (TK1), Factor Vila (FVIIa), or FVIIa complexed with Tissue Factor, phospholipids and CaCl2) (FVIIa/TF/PL/CaCl2) was determined using the following biochemical assays in assay buffer (100 mM Tris, 150 mM NaCL, adjusted to a pH of 7.8 with HCl, and containing 0.1% (w/v) BSA and 0.05% (v/v) Tween20) in the presence of 1% (v/v) DMSO:
Subsequently, PPACK II (Calbiochem) was added as a stop solution to achieve a final concentration of 1 μM and fluorescence was measured using an Envision Reader (PerkinElmer) with the wavelength excitation setting of 355 nm and the wavelength emission setting of 460 nm. The number of the compound corresponds to the number of the Example in the experimental section.

Chain of Human PKK (P03952 391-638): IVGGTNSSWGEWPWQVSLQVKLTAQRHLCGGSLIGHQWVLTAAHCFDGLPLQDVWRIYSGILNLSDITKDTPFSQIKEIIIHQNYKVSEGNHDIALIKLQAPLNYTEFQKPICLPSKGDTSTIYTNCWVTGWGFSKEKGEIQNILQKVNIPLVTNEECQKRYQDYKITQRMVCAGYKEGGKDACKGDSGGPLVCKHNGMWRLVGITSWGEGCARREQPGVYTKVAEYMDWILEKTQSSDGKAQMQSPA
Chain of Human PKK (P03952 20-390 partner): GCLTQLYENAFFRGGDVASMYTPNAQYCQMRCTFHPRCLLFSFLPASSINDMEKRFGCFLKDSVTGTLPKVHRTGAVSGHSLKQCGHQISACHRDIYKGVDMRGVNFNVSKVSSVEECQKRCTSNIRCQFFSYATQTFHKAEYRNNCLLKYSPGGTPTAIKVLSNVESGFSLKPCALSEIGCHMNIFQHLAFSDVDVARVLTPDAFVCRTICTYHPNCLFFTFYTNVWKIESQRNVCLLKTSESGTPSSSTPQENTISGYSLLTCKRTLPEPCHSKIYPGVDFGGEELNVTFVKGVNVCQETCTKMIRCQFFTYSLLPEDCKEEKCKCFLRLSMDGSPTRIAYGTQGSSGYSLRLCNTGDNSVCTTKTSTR

| SMILES | IC50 [nM] |
| --- | --- |
| Cc1nc(N2CC3C(C2)C3(F)F)ccc1Cn1cc(C(=O)NCc2cc(Cl)ccc2-n2cnnn2)c2cncnc21 (stereo not shown) [Example 8] | 1 |
| Cc1cc(Cl)cc(CNC(=O)c2cnn(Cc3ccc(N4CC5CC5C4)nc3C)c2)c1-n1cnnn1 (stereo not shown) [Example 4] | 82 |
| Cc1nc(N2CC3CC(C2)O3)ccc1Cn1cc(C(=O)NCc2cc(Cl)ccc2-n2cnnn2)cn1 [Example 65, N-{[5-chloro-2-(1H-1,2,3,4-tetrazol-1-yl)phenyl]methyl}-1-[(2-methyl-6-{6-oxa-3-azabicyclo[3.1.1]heptan-3-yl}pyridin-3-yl)methyl]-1H-pyrazole-4-carboxamide] | 10 |
| Cc1nc(N2CC3CC(C2)C3O)ccc1Cn1cc(C(=O)NCc2cc(Cl)ccc2-n2cnnn2)cn1 (stereo not shown) [Example 68, N-{[5-chloro-2-(1H-1,2,3,4-tetrazol-1-yl)phenyl]methyl}-1-[(6-{6-hydroxy-3-azabicyclo[3.1.1]heptan-3-yl}-2-methylpyridin-3-yl)methyl]-1H-pyrazole-4-carboxamide] | 4 |
| Cc1nc(N2CC3CC3C2)ccc1Cn1cc(C(=O)NCc2cc(Cl)ccc2-n2cnnn2)c(C)n1 (stereo not shown) [Example 19] | 0.7 |
| Cc1nc(N2CC3CCC(C2)N3)ccc1Cn1cc(C(=O)NCc2cc(Cl)ccc2-n2cnnn2)cn1 [Example 90, N-{[5-chloro-2-(1H-1,2,3,4-tetrazol-1-yl)phenyl]methyl}-1-[(6-{3,8-diazabicyclo[3.2.1]octan-3-yl}-2-methylpyridin-3-yl)methyl]-1H-pyrazole-4-carboxamide] | 119 |
| COCc1nn(Cc2ccc(N3CC4CC4C3)nc2C)cc1C(=O)NCc1c(-n2cnnn2)ccc(Cl)c1F (stereo not shown) [Example 14] | 0.6 |
| O=C(NCc1cc(Cl)ccc1-n1cnnn1)c1cnn(Cc2cnc(N3CC4C(C3)C4(F)F)c(Br)c2)c1 (stereo not shown) [Example 51] | 2 |
| Cc1nc(N2CC3C(C2)C3(F)F)ncc1Cn1cc(C(=O)NCc2cc(Cl)ccc2-n2cnnn2)c(C)n1 (stereo not shown) [Example 34] | 1 |
| Cc1nc(N2CC3C(C2)C3(F)F)ccc1Cn1cc(C(=O)NCc2cc(Cl)ccc2-n2cnnn2)c(C)n1 (stereo not shown) [Example 18] | 1 |
| Cc1nc(N2CC3CC3C2)ccc1Cn1cc(C(=O)NCc2cc(Cl)ccc2-n2cnnn2)c2cccnc21 (stereo not shown) [Example 50] | 9 |
| Cc1nc(N2CC3C(C2)C3(F)F)ncc1Cn1cc(C(=O)NCc2cc(Cl)ccc2-n2cnnn2)c2cncnc21 (stereo not shown) [Example 24] | 2 |
| COC[C@H]1[C@H]2CN(c3ccc(Cn4cc(C(=O)NCc5cc(Cl)ccc5-n5cnnn5)cn4)c(C)n3)C[C@@H]12 [Example 55] | 3 |
| COCc1nn(Cc2cnc(N3CC4C(C3)C4(F)F)nc2C)cc1C(=O)NCc1c(-n2cnnn2)ccc(Cl)c1F (stereo not shown) [Example 32] | 1 |
| Cc1nc(N2CC3CC3C2)ccc1Cn1cc(C(=O)NCc2c(-n3cnnn3)ccc(Cl)c2F)c(-c2cnn(C)c2)n1 (stereo not shown) [Example 43] | 0.4 |

Now from value to compound:

| IC50 [nM] | SMILES |
| --- | --- |
| 2 | Cc1nc(N2CC3CC3C2)ncc1Cn1cc(C(=O)NCc2cc(Cl)ccc2-n2cnnn2)c(C)n1 (stereo not shown) [Example 31] |
| 232 | Cc1nc(N2CC3(CNC(=O)C3)C2)ccc1Cn1cc(C(=O)NCc2cc(Cl)ccc2-n2cnnn2)cn1 [Example 74, N-{[5-chloro-2-(1H-1,2,3,4-tetrazol-1-yl)phenyl]methyl}-1-[(2-methyl-6-{7-oxo-2,6-diazaspiro[3.4]octan-2-yl}pyridin-3-yl)methyl]-1H-pyrazole-4-carboxamide] |
| 1090 | Cc1nc(N2CC3(CN(C)C3)C2)ccc1Cn1cc(C(=O)NCc2cc(Cl)ccc2-n2cnnn2)cn1 [Example 83, N-{[5-chloro-2-(1H-1,2,3,4-tetrazol-1-yl)phenyl]methyl}-1-[(2-methyl-6-{6-methyl-2,6-diazaspiro[3.3]heptan-2-yl}pyridin-3-yl)methyl]-1H-pyrazole-4-carboxamide] |
| 0.2 | Cc1nc(N2CC3(CC3)C2)ccc1Cn1cc(C(=O)NCc2c(-n3cnnn3)ccc(Cl)c2F)cn1 [Example 53] |
| 1 | COCc1nn(Cc2ccc(N3CC4(CC4)C3)nc2C)cc1C(=O)NCc1cc(Cl)ccc1-n1cnnn1 [Example 25] |
| 9 | Cc1nc(N2CCC3(C2)CC3(F)F)ccc1Cn1cc(C(=O)NCc2cc(Cl)ccc2-n2cnnn2)cn1 (stereo not shown) [Example 66, N-{[5-chloro-2-(1H-1,2,3,4-tetrazol-1-yl)phenyl]methyl}-1-[(6-{1,1-difluoro-5-azaspiro[2.4]heptan-5-yl}-2-methylpyridin-3-yl)methyl]-1H-pyrazole-4-carboxamide] |
| 5 | Cc1nc(N2CC3(CCCO3)C2)ccc1Cn1cc(C(=O)NCc2cc(Cl)ccc2-n2cnnn2)cn1 [Example 69, N-{[5-chloro-2-(1H-1,2,3,4-tetrazol-1-yl)phenyl]methyl}-1-[(2-methyl-6-{5-oxa-2-azaspiro[3.4]octan-2-yl}pyridin-3-yl)methyl]-1H-pyrazole-4-carboxamide] |
| 0.7 | Cc1nc(N2CC3(CC3)C2)ncc1Cn1cc(C(=O)NCc2c(-n3cnnn3)ccc(Cl)c2F)c(C)n1 [Example 38] |
| 286 | Cc1nc(N2CCC3(CNC3)C2)ccc1Cn1cc(C(=O)NCc2cc(Cl)ccc2-n2cnnn2)cn1 [Example 93, N-{[5-chloro-2-(1H-1,2,3,4-tetrazol-1-yl)phenyl]methyl}-1-[(6-{2,6-diazaspiro[3.4]octan-6-yl}-2-methylpyridin-3-yl)methyl]-1H-pyrazole-4-carboxamide] |
| 8 | Cc1nc(N2CCC3(CCOC3)C2)ccc1Cn1cc(C(=O)NCc2cc(Cl)ccc2-n2cnnn2)cn1 (stereo not shown) [Example 71, N-{[5-chloro-2-(1H-1,2,3,4-tetrazol-1-yl)phenyl]methyl}-1-[(2-methyl-6-{2-oxa-7-azaspiro[4.4]nonan-7-yl}pyridin-3-yl)methyl]-1H-pyrazole-4-carboxamide] |
| 3 | Cc1nc(N2CCC3CC3C2)ccc1Cn1cc(C(=O)NCc2cc(Cl)ccc2-n2cnnn2)cn1 (stereo not shown) [Example 85, 1-[(6-{3-azabicyclo[4.1.0]heptan-3-yl}-2-methylpyridin-3-yl)methyl]-N-{[5-chloro-2-(1H-1,2,3,4-tetrazol-1-yl)phenyl]methyl}-1H-pyrazole-4-carboxamide] |
| 0.5 | Cc1nc(N2CC3(CC3)C2)ncc1Cn1cc(C(=O)NCc2c(-n3cnnn3)ccc(Cl)c2F)cn1 [Example 40] |
| 2 | Cc1nc(N2CC3(CC3)C2)ccc1Cn1cc(C(=O)NCc2cc(Cl)ccc2-n2cnnn2)c(C)n1 [Example 29] |
| 10 | Cc1nc(N2CC3CC2C3)ccc1Cn1cc(C(=O)NCc2cc(Cl)ccc2-n2cnnn2)cn1 [Example 67, 1-[(6-{2-azabicyclo[2.1.1]hexan-2-yl}-2-methylpyridin-3-yl)methyl]-N-{[5-chloro-2-(1H-1,2,3,4-tetrazol-1-yl)phenyl]methyl}-1H-pyrazole-4-carboxamide] |
| 1060 | Cc1nc(N2CC3(C2)CN(C(C)C)C3)ccc1Cn1cc(C(=O)NCc2cc(Cl)ccc2-n2cnnn2)cn1 [Example 79, N-{[5-chloro-2-(1H-1,2,3,4-tetrazol-1-yl)phenyl]methyl}-1-({2-methyl-6-[6-(propan-2-yl)-2,6-diazaspiro[3.3]heptan-2-yl]pyridin-3-yl}methyl)-1H-pyrazole-4-carboxamide] |
| 7 | Cc1nc(N2CCC3CC32)ccc1Cn1cc(C(=O)NCc2cc(Cl)ccc2-n2cnnn2)cn1 (stereo not shown) [Example 82, 1-[(6-{2-azabicyclo[3.1.0]hexan-2-yl}-2-methylpyridin-3-yl)methyl]-N-{[5-chloro-2-(1H-1,2,3,4-tetrazol-1-yl)phenyl]methyl}-1H-pyrazole-4-carboxamide] |
| 845 | Cc1nc(N2CC3OCC(N)C3C2)ccc1Cn1cc(C(=O)NCc2cc(Cl)ccc2-n2cnnn2)cn1 (stereo not shown) [Example 70, 1-[(6-{3-amino-hexahydro-2H-furo[2,3-c]pyrrol-5-yl}-2-methylpyridin-3-yl)methyl]-N-{[5-chloro-2-(1H-1,2,3,4-tetrazol-1-yl)phenyl]methyl}-1H-pyrazole-4-carboxamide] |
| 12 | Cc1nc(N2CCC3(COC3)C2)ccc1Cn1cc(C(=O)NCc2cc(Cl)ccc2-n2cnnn2)cn1 [Example 61, N-{[5-chloro-2-(1H-1,2,3,4-tetrazol-1-yl)phenyl]methyl}-1-[(2-methyl-6-{2-oxa-6-azaspiro[3.4]octan-6-yl}pyridin-3-yl)methyl]-1H-pyrazole-4-carboxamide] |
| 9 | Cc1nc(N2CC3CCCC3C2)ccc1Cn1cc(C(=O)NCc2cc(Cl)ccc2-n2cnnn2)cn1 (stereo not shown) [Example 73, N-{[5-chloro-2-(1H-1,2,3,4-tetrazol-1-yl)phenyl]methyl}-1-[(2-methyl-6-{octahydrocyclopenta[c]pyrrol-2-yl}pyridin-3-yl)methyl]-1H-pyrazole-4-carboxamide] |
| 6 | Cc1nc(N2C[C@@H]3[C@@H](O)[C@@H]3C2)ccc1Cn1cc(C(=O)NCc2cc(Cl)ccc2-n2cnnn2)cn1 [Example 56] |
| 22 | Cc1nc(N2CC3(CCOC3)C2)ccc1Cn1cc(C(=O)NCc2cc(Cl)ccc2-n2cnnn2)cn1 [Example 81, N-{[5-chloro-2-(1H-1,2,3,4-tetrazol-1-yl)phenyl]methyl}-1-[(2-methyl-6-{6-oxa-2-azaspiro[3.4]octan-2-yl}pyridin-3-yl)methyl]-1H-pyrazole-4-carboxamide] |
| 3 | Cc1nc(N2CC3(CC3)C2)ncc1Cn1cc(C(=O)NCc2cc(Cl)ccc2-n2cnnn2)cn1 [Example 39] |
